`c1ccc(COc2ccc(COc3ccc(CCCn4ccnc4)cc3)cn2)cc1` gave a melting point of 84 to 85 °C.
`CC1(C)OC(=O)N[C@H]1Cc1ccccc1`: the melting point is 59 °C.
In turn, `Cc1noc(NS(=O)(=O)c2c(C(=O)c3ccc4c(c3)OCO4)sc3ncccc23)c1Cl` gave a melting point of 75 to 90 °C.
As for `CCOC(=O)c1c[nH]c2ccc(OC3CCN(C)CC3)nc12`, the figure is 232 °C; as for `CC1(C)Nc2ccccc2-n2cnc(-c3nc(C4CC4)no3)c21`, 175 to 179 °C.
As for `CC(C)[C@H](NC(=O)CS)C(=O)N1CCC[C@H]1C(=O)O`, the figure is 162 to 165 °C; as for `CC(C)N1CCC(CN2CCN(CC3CCN(C(C)C)CC3)C2=C(C#N)C#N)CC1`, 172 to 174 °C; as for `FC(F)(F)c1cccc(-c2ncc(CCl)c(C3CC3)n2)c1`, 92 to 95 °C.
As to `CC(C(=O)CC(C)(C)Cc1ccc(Cl)cc1)N1C(=O)c2ccccc2C1=O` (configuration not stated), the melting point was in the range of 96 to 98 °C.
As to `NS(=O)(=O)c1ccc(-c2cnn(CC(F)=C(F)F)c(=O)c2-c2ccc(F)cc2)cc1`, the melting point is 173 to 175 °C.
The value for `C=CCn1c(=O)c([N+](=O)[O-])c(O)c2ccccc21` was 125 to 127 °C; that for `Cc1nc2cccc(OCC(C)(C)NC(=O)C3CCOCC3)c2c(N)c1C(=O)O` was 170 to 173 °C; that for `C[C@@H](Nc1ncnc2[nH]c(-c3ccc(CNC(=O)CN4CCCCC4)cc3)cc12)c1ccccc1` was 194 to 196 °C.
The molecule `Cc1c(OCc2nnn[nH]2)cc2c(c1Cl)C(=O)C1(CCCC1)C2=O` returned a melting point of 211 °C.
As for `COc1ccc(CCc2ccc(NC(=O)C(=O)c3sc4ccccc4c3O)cc2)cc1OC`, the figure is 203 °C; as for `C=CCc1cc2c(c(CC=C)c1O)NC(=O)CC2`, 86 to 88 °C; as for `O=C(c1ccc(F)cc1)N1Cc2c(-c3ccc(F)cc3)ncn2-c2ccccc21`, 230 to 231 °C.
`CCN(CC)c1ccc(C2OC(=O)c3cc(N(C)C)ccc32)cc1` (configuration not stated) registered a melting point of 165 to 166 °C.
The value for `Cc1c2c(c(C)c3c1NCC3)OC(C)(CI)C2` (configuration not stated) was 90 to 91 °C; that for `CC(C)(C)OC(=O)NC(C)(COCc1ccccc1)C(=O)O` (configuration not stated) was 112 to 114 °C; that for `COc1ccc(Oc2ccc3nc(COc4ccc(CC5SC(=O)NC5=O)cc4)n(C)c3c2)cc1` (configuration not stated) was 122 to 126 °C.
The value for `CC(C)(CCCc1cccnc1)NC(=O)Cc1ccccc1[N+](=O)[O-]` was 117 to 118 °C; that for `CCC1c2cc(OC)c(OC)cc2C(C=Cc2ccc(N)cc2)=NNC1C` (configuration not stated) was 155 to 158 °C.
The value for `COC(=O)c1cc(Cl)cc2c1OCCN2` was 60 to 61 °C; that for `CCC(C)C(C)C(=O)Nc1ccc2ncn3c(=O)c(C(=O)O)cnc3c2c1` (configuration not stated) was 286 to 288 °C; that for `Nc1cc(F)ccc1C(=O)NCc1ccc(Br)cc1F` was 120 to 121 °C.
Molecule `COc1ccccc1CCC(C)(O)CC1CCCCN1` (configuration not stated) returned a melting point of 115 to 116 °C.
`O=C(O)CCCC#CCNS(=O)(=O)c1ccc(Cl)cc1` came in with a melting point of 91 to 93 °C.
Consider `CCCCCCC(=N)NC(=S)Nc1ccc(Br)cc1Br`, for which the melting point lay within 86 to 88 °C.
`CSc1nc(C)ccc1NC(=O)CCCCCBr` came in with a melting point of 98 to 99 °C.
Turning to `O=C(O)CCC(=NO)c1ccc(-c2ccc(Cl)cc2F)cc1`, the melting point was in the range of 148 to 150 °C.
The molecule `O=C(OCc1ccc(C(F)(F)F)cc1)N1CCN(CC2Cn3cc([N+](=O)[O-])nc3O2)CC1` (configuration not stated) returned a melting point of 120 to 122 °C.
The value for `Nn1c(=O)c2cc(F)c(S(=O)(O)=S)nc2n(C2CC2)c1=O` was 167 to 169 °C.
As to `Cc1oc2cc(O)ccc2c(=O)c1C(=O)O`, the melting point fell in the range of 286 to 287 °C.
The value for `COC(=O)c1ccc(Cn2nc(OCc3ccccc3)c3ccc(NC(=O)CC4CCCC4)cc32)c(OC)c1` was 139 to 140 °C.
As to `O=C(O)C[C@H]1C[C@H](C(=O)O)Nc2cc(Cl)cc(Cl)c21` (relative stereo), the melting point lay in the range of 229 to 231 °C.
On to `CC(=O)Nc1csc(-c2ccc3c(=O)n(CC(C)C)c(CNC(=O)OC(C)(C)C)c(-c4ccccc4)c3c2)n1`, for which the melting point was 227 to 228 °C.
As for `NC(=O)c1ccccc1NC(=O)c1cccnc1`, the figure is 220 to 222 °C; as for `CCS(=O)(=O)NCC(O)(Cn1cncn1)c1ccc(Cl)cc1Cl` (configuration not stated), 144 to 145 °C.
As for `CCC(c1oc2ccccc2c(=O)c1-c1ccc(F)cc1)n1cnc2c(N)ncnc21` (configuration not stated), the figure is 223 to 227 °C.
Molecule `Brc1csc(-c2cn([C@H]3CN4CCC3CC4)nn2)c1` displayed a melting point of 106 °C.
The value for `C#CC1(OC(=O)c2ccccc2)C(COC(=O)c2ccc(Cl)cc2)OC(n2ccc(=O)[nH]c2=O)C1OC(=O)c1ccccc1` (configuration not stated) was 158 to 160 °C.
On to `Cc1cc(C)c(S(=O)(=O)OC[C@@H]2C[C@@H]2COS(=O)(=O)c2c(C)cc(C)cc2C)c(C)c1`, for which the melting point was found to be 240 °C.
As for `CCOCc1nc2c(N)nc3c(c2n1NC(C)C)CCCC3`, the figure is 144 to 146 °C.
Take `CC(C)NCc1nc(-c2ncn3c2CN(C)C(=O)c2ccccc2-3)no1`: the melting point is 142 to 144 °C.
Turning to `CC1(C)C(=O)c2c(cc(OCC(=O)O)c(Cl)c2Cl)C1c1ccccc1` (configuration not stated), the melting point was 163 to 164 °C.
For the molecule `CC(Cl)(Cl)C(NC(=O)c1ccc(Cl)cc1)NC(=NC#N)Nc1cccnc1` (configuration not stated), the melting point lay within 185 to 187 °C.
As for `NC(=S)N1CCN(C=O)CC1`, the figure is 118 °C; as for `CSc1nc2cccccc-2n1`, 101 to 102 °C; as for `CCOC(=O)COc1ccc(C(=O)Nc2ccccc2Sc2ccccc2-c2nnn[nH]2)cc1OC`, 179 to 181 °C.
As to `CCC[C@@H](C)C(C(=O)O)C(=O)O`, the melting point turned out to be 95 °C.
`CSC[C@H](C)NC(=O)c1c(I)cccc1C(=O)Nc1ccc(Cc2cc(C(F)(F)F)cc(C(F)(F)F)c2)cc1C`: the melting point lay in the range of 85 to 94 °C.
As for `COc1cc(Nc2c(C#N)cnc3cc(-c4ccc(CN(C)C)cc4)sc23)c(Cl)cc1Cl`, the figure is 224 to 225 °C; as for `O=C1CC(C(=O)NC(c2ccccc2)c2ccc(Cl)cc2)Oc2ccc(F)cc21` (single isomer, unassigned; (+)), 167 °C.
`COc1cc2c(cc1Br)C1=C(c3cccs3)C3CSCCN(C(C)(C)C)C(=O)C3N1CC2` (configuration not stated) displayed a melting point of 233 to 235 °C.
In turn, `COC(=O)C=C(C)c1ccc(CCC(C)(C)NCC(O)c2ccccc2)cc1` (configuration not stated) showed a melting point of 98 to 102 °C.
As for `CCOc1cc(Cc2cnc(N)nc2N)cc2c1OC(C)(C)C=C2C#CC(C)O` (configuration not stated), the figure is 218 to 219 °C; as for `NC(=O)CC(c1cccc(F)c1)c1cccc(F)c1`, 103 to 105 °C.
As for `CCC(C)c1cccc(C(C)CC)c1C(=O)O` (configuration not stated), the figure is 125 to 126 °C.
As for `CSc1ccc(-c2coc3ccc(-c4nnc(N)o4)cc23)cc1Cl`, the figure is 232 to 233 °C.
`COC1OCC[C@@H]1NC(=O)[C@H](CC(C)C)NC(=O)[C@H](CC(C)C)NC(=O)OCc1ccccc1` (some centres not stated): the melting point fell in the range of 76 to 77 °C.
Turning to `CC(C)[C@H](NC(=O)CN1CCN(CC(=O)O)C1=O)C(=O)N1CCC[C@H]1C(=O)N[C@H](C(=O)C(F)(F)F)C(C)C`, the melting point was in the range of 177 to 178 °C.

For the origin of these results see a melting point compilation (Tetko et al.; mined from patent text by program, amines drawn as free bases though some values may be those of a salt).
